Laboratory results reported in patent publication US20260102346A1, “LIPID COMPOSITION” (priority 2022, published 2026).

Legend:
[1] = system: luciferase mRNA expression in livers and injection sites (muscles); assay: In vivo luciferase expression of LNP with M5, MC3, SW-II-121 (Example 11.1); parameters: species or system Balb/c mice; conditions: LNP preparation, DSPC, PEG-DMG, 50:10:38.5:1.5, 10 μg luciferase mRNA, 6 hours after intramuscular administration
Procedure: (§1) Test of in vivo luciferase signal expression: female Balb/c mice (Beijing Vital River Laboratory Animal Technology Co., Ltd.) of 6-8 weeks of age were divided into 3 groups (M5-LNP, MC3-LNP, and SW-II-121-LNP, with 3 mice per group). M5-LNP, MC3-LNP, and SW-II-121-LNP solutions containing 10 μg of luciferase mRNA were administered by intramuscular injection (hind limbs of mice), respectively. 6 Hours after the administration, mice were injected intraperitoneally with 30 mg of a […] substrate. The bioluminescence was measured in a Xenogen IVIS-200 imaging system 15 minutes after substrate injection to evaluate the expression of the luciferase mRNA in the livers and injection sites (muscles) of the mice.

[2] = system: luciferase mRNA expression in livers and injection sites (muscles); assay: In vivo luciferase expression liver/muscle of LNP and LPP with different cationic lipids (Example 10); parameters: species or system Balb/c mice; conditions: 10 μg luciferase mRNA i.m., 6 hours after injection; for Liver/muscle (%, LNP): LNP preparation of the cationic lipid; for Liver/muscle (%, LPP): LPP preparation of the cationic lipid
Description: as §1, with “into 18” for “into 3”, “(M5-LNP, M5-LPP, SM102-LNP, SM102-LPP, ALC0315-LNP, ALC0315LPP, SW-II-121-LNP, SW-II-121-LPP, SW-II-122-LNP, SW-II-122-LPP, SW-II-134-3-LNP, SW-II-134-3-LPP, SW-II-138-2-LNP, SW-II-138-2-LPP, SW-II-139-2-LNP, SW-II-139-2-LPP, SW-II-140-2-LNP,” for “(M5-LNP, MC3-LNP,”, “and SW-II-140-2-LPP groups,” for “and SW-II-121-LNP,”, “M5-LNP, M5-LPP, SM102-LNP, SM102-LPP, ALC0315-LNP, ALC0315LPP, SW-II-121-LNP, SW-II-121-LPP, SW-II-122-LNP, SW-II-122-LPP, SW-II-134-3-LNP, SW-II-134-3-LPP, SW-II-138-2-LNP, SW-II-138-2-LPP, SW-II-139-2-LNP, SW-II-139-2-LPP, SW-II-140-2-LNP,” for “M5-LNP, MC3-LNP,”, “and SW-II-140-2-LPP” for “and SW-II-121-LNP”

| Compound | in vivo expression (luciferase, injection site and liver) [1] | Liver/muscle (%, LNP) [2] [%] | Liver/muscle (%, LPP) [2] [%] |
| --- | --- | --- | --- |
| CCCCCCCCC(CCCCCCCC)OC(=O)CCCCCCCN(CCO)CCCCCCCC(=O)OCCc1ccc(CCCCCCC)cc1 [SW-II-121] | significantly superior in vivo expression 6 hours after intramuscular administration to M5-LNP and MC3-LNP | 77.8 ± 48.9 | 52.2 ± 38.9 |
| CCCCCCCCCCCOC(=O)CCCCCN(CCO)CCCCCCCC(=O)OC(CCCCCCCC)CCCCCCCC [SM-102, reference compound] | – | 6.2 ± 3.3 | 2.7 ± 0.6 |
| CCCCCCCCC(CCCCCCCC)OC(=O)CCCCCCCN(CCO)CCCCCCCC(=O)OCCc1ccccc1CCCC [SW-II-140-2] | – | 7.4 ± 4.0 | 3.3 ± 1.5 |
| CCCCCCCCC(CCCCCC)C(=O)OCCCCCCN(CCCCO)CCCCCCOC(=O)C(CCCCCC)CCCCCCCC (stereo not shown) [ALC-0315, reference compound] | – | 199.8 ± 35.8 | 173.2 ± 103.9 |
| CCCCCCCCC(CCCCCCCC)OC(=O)CCCCCCCN(CCO)CCCCCCCC(=O)OCCCCc1ccc(CCCCC)cc1 [SW-II-138-2] | – | 8.2 ± 5.7 | 3.5 ± 0.2 |
| CCCCCCCCCOC(=O)CCCCCCCN(CCO)CCCCCCCC(=O)OC(CCCCCCCC)CCCCCCCC [Compound M5] | – | 10.1 ± 7.5 | 2.8 ± 0.3 |
| CCCCCCCCCOC(=O)CCCCCCCN(CCO)CCCCCCCC(=O)OCCc1ccc(CCCC)c(CCCC)c1 [SW-II-134-3] | – | 8.2 ± 2.9 | 1.5 ± 0.8 |
| CCCCCCCCC(CCCCCCCC)OC(=O)CCCCCCCN(CCO)CCCCCCCC(=O)OCc1cccc(CCCCCC)c1 [SW-II-122] | – | 11.9 ± 1.2 | 2.8 ± 0.8 |
| CCCCCCCCC(CCCCCCCC)OC(=O)CCCCCCCN(CCO)CCCCCCCC(=O)OCCc1cccc(CCCC)c1 [SW-II-139-2] | – | 75.1 ± 16.1 | 2.0 ± 1.0 |
